Where two headings read alike, the source gives them in different places.
Tests used:
[1] = tested on: E. coli DH10B strains expressing PDC-3 variants; assay: MIC, MH agar dilution (CLSI), variant strains taken together; type: cell-based, Escherichia coli
Description: (§1) Variant genes were synthesized into the pBC SK (-) vector by Celtek Bioscience (Franklin, TN). Mueller-Hinton (MH) agar-dilution MIC measurements were performed against isogenic transformants producing PDC-3 and nine variants of PDC-3 in pBC SK (-) according to the Clinical and Laboratory Standards Institute (CLSI) guidelines as previously described ([39], [48]). Avibactam, LP-06, and S02030 were tested at a constant 4 µg/ml in combination with various concentrations of ceftazidime. Piperacillin-tazobactam was maintained at a ratio of 8 piperacillin to 1 tazobactam. Ceftolozane-tazobactam was maintained at a ratio of 2 ceftolozane to 1 tazobactam. The MICs are reported as the concentrations at which bacterial growth was no longer observed. All MIC measurements were performed at least three times.

[2] = tested on: E. coli DH10B pBC SK blaPDC-3 E221K; assay: MIC, MH agar dilution (CLSI); type: cell-based, Escherichia coli; details: for MIC: Escherichia coli
Description: as §1

[3] = molecular target: T1, E221K variant of PDC-3 β-lactamase (Pseudomonas aeruginosa, UniProt P24735, E247K/T105A); assay: Steady-state hydrolysis kinetics; type: biochemical
T1 construct: produces the corresponding PDC-3 protein without its signal peptide; made in house; host or cells: E. coli Origami 2 DE3, pET24a (+) blaPDC-3-E221K
Description: (§2) Steady-state kinetic and inhibitor parameters were determined by using an Agilent 8453 diode array spectrophotometer at room temperature as previously described ([20], [43], [49]). Each assay was performed in 10 mM phosphate-buffered saline (PBS) at pH 7.4 at room temperature (RT = ∼25°C) in a quartz cuvette with a 1-cm path length. Measurements were obtained using ceftolozane and ceftazidime. The kinetic parameters, Vmax and Km, were obtained with a nonlinear least-squares fit of the data (Henri Michaelis-Menten, equation 1) using Origin 7.5VR (OriginLab, Northampton, MA).(1) v=Vmax [S]/Km+[S]

[4] = molecular target: T2, PDC-3 β-lactamase (Pseudomonas aeruginosa, UniProt P24735, T105A); assay: Competitive inhibition assay with nitrocefin as reporter substrate (Ki app); type: biochemical
T2 construct: produces the corresponding PDC-3 protein without its signal peptide; made in house; host or cells: E. coli Origami 2 DE3, pET24a (+) blaPDC-3
Description: For competitive inhibition assays used to determine Ki app, 150 μM nitrocefin was used as the reporter substrate with increasing concentrations of ceftazidime or ceftolozane. Initial velocities were plotted against concentrations of ceftazidime or ceftolozane. Ki app obs were determined by dividing the slope by the y intercept. Ki app was calculated by correcting Ki app obs for nitrocefin affinity and concentration (equation 3). (3) Ki app=Ki app obs/[1+([NCF]/Km NCF)

[5] = tested on: E. coli DH10B pBC SK blaPDC-3 V213G; assay: MIC, MH agar dilution (CLSI); type: cell-based; details: Escherichia coli, β-lactam alone
Description: as §1

[6] = tested on: E. coli DH10B; assay: MIC, MH agar dilution (CLSI); type: cell-based; details: Escherichia coli, β-lactam alone
Description: as §1

[7] = tested on: E. coli DH10B pBC SK blaPDC-3 Y223H; assay: MIC, MH agar dilution (CLSI); type: cell-based; details: Escherichia coli, β-lactam alone
Description: as §1

[8] = tested on: E. coli DH10B pBC SK blaPDC-3 E221G; assay: MIC, MH agar dilution (CLSI); type: cell-based; details: Escherichia coli, β-lactam alone
Description: as §1

[9] = tested on: E. coli DH10B pBC SK blaPDC-3 G216R; assay: MIC, MH agar dilution (CLSI); type: cell-based; details: Escherichia coli, β-lactam alone
Description: as §1

[10] = tested on: E. coli DH10B pBC SK blaPDC-3 G216A; assay: MIC, MH agar dilution (CLSI); type: cell-based; details: Escherichia coli; β-lactam alone; E. coli DH10B pBC SK blaPDC-3 G216A (Table 2 prints G216)
Description: as §1

[11] = tested on: E. coli DH10B pBC SK blaPDC-3 E221A; assay: MIC, MH agar dilution (CLSI); type: cell-based; details: Escherichia coli; β-lactam alone; E. coli DH10B pBC SK blaPDC-3 E221A (Table 2 prints E221)
Description: as §1

[12] = tested on: E. coli DH10B pBC SK blaPDC-3 V213A; assay: MIC, MH agar dilution (CLSI); type: cell-based; details: Escherichia coli, β-lactam alone
Description: as §1

[13] = tested on: E. coli DH10B pBC SK blaPDC-3; assay: MIC, MH agar dilution (CLSI); type: cell-based; details: Escherichia coli
Description: as §1

[14] = tested on: E. coli DH10B pBC SK blaPDC-3 Y223A; assay: MIC, MH agar dilution (CLSI); type: cell-based; details: Escherichia coli, β-lactam alone
Description: as §1

[15] = tested on: E. coli DH10B pBC SK; assay: MIC, MH agar dilution (CLSI); type: cell-based; details: Escherichia coli, DH10BPBCSK, β-lactam alone
Description: as §1

[16] = tested on: E. coli DH10B pBC SK blaPDC-1; assay: MIC, MH agar dilution (CLSI); type: cell-based; details: Escherichia coli, β-lactam alone
Description: as §1

[17] = tested on: P. aeruginosa 18SH; assay: MIC, MH agar dilution (CLSI); type: cell-based; details: Pseudomonas aeruginosa, β-lactam alone, control strain expressing PDC-3
Description: as §1

[18] = tested on: P. aeruginosa PAO1; assay: MIC, MH agar dilution (CLSI); type: cell-based; details: Pseudomonas aeruginosa; β-lactam alone; P. aeruginosa PAO1, control strain expressing PDC-1
Description: as §1

[19] = molecular target: T2, PDC-3 β-lactamase; assay: Steady-state hydrolysis kinetics; type: biochemical; details: reporter substrate with PDC-3
Description: as §2

[20] = substrate hydrolysis by E221K, 10 mM PBS pH 7.4, room temperature
[21] = read-out: MIC value, β-lactam alone, E. coli DH10B pBC SK blaPDC-3

## Cn1c(N)c(NC(=O)NCCN)c[n+]1CC1=C(C(=O)O)N2C(=O)[C@@H](NC(=O)/C(=N\OC(C)(C)C(=O)[O-])c3nsc(N)n3)[C@H]2SC1 [Ceftolozane]
[1]; oxyimino cephalosporin paired with avibactam
  MICs when paired with avibactam: ≤ 1 mg/L
[2]; E221K variant strain versus PDC-3 strain, E. coli DH10B
  fold increase in MIC relative to the wild-type strain: 128 fold
[2]; read-out: MIC value
  MIC: 64 µg/mL
[2]; read-out: ceftolozane MIC
  MIC: 64 µM
[3]; [20]
  Km: 341 ± 64 µM
  Vmax: 1.0 ± 0.1 µM/s
  kcat: 10 ± 1 s⁻¹
[4]; 150 μM nitrocefin reporter substrate
  Ki: 1.3 mM
[4]; ceftolozane Ki app higher than ceftazidime Ki app
  fold difference in Ki app between ceftolozane and ceftazidime: 60 fold
[5]
  MIC: 4 µg/mL
[6]
  MIC: 0.5 µg/mL
[7]
  MIC: 8 µg/mL
[8]
  MIC: 16 µg/mL
[9]
  MIC: 8 µg/mL
[10]
  MIC: 2 µg/mL
[11]
  MIC: 2 µg/mL
[12]
  MIC: 4 µg/mL
[13]; [21]
  MIC: 0.5 µg/mL
[13]; read-out: ceftolozane MIC, PDC-3 strain, Table 2
  MIC: 0.5 µM
[14]
  MIC: 32 µg/mL
[15]
  MIC: 0.5 µg/mL
[16]
  MIC: 0.5 µg/mL
[17]
  MIC: 8 µg/mL
[18]
  MIC: 0.5 µg/mL

## C[C@@H](O)[C@H]1C(=O)N2C(C(=O)O)=C(SCCN=CN)C[C@H]12 [Imipenem]
[2]; read-out: MIC value
  MIC: 0.5 µg/mL
[5]
  MIC: 0.5 µg/mL
[7]
  MIC: 0.5 µg/mL
[8]
  MIC: 0.5 µg/mL
[9]
  MIC: 0.5 µg/mL
[10]
  MIC: 0.5 µg/mL
[11]
  MIC: 0.5 µg/mL
[12]
  MIC: 0.5 µg/mL
[13]; [21]
  MIC: 0.25 µg/mL
[14]
  MIC: 0.5 µg/mL
[15]
  MIC: 0.25 µg/mL
[16]
  MIC: 0.25 µg/mL
[17]
  MIC: 2 µg/mL
[18]
  MIC: 2 µg/mL

## CCN1CCN(C(=O)N[C@@H](C(=O)N[C@@H]2C(=O)N3[C@@H]2SC(C)(C)[C@@H]3C(=O)O)c2ccccc2)C(=O)C1=O [Piperacillin]
[2]; β-lactam alone, E. coli DH10B pBC SK blaPDC-3 E221K, read-out: MIC value
  MIC: 16 µg/mL
[5]
  MIC: 64 µg/mL
[6]
  MIC: 2 µg/mL
[7]
  MIC: 32 µg/mL
[8]
  MIC: 64 µg/mL
[9]
  MIC: 16 µg/mL
[10]
  MIC: 64 µg/mL
[11]
  MIC: 128 µg/mL
[12]
  MIC: 64 µg/mL
[13]; β-lactam alone, E. coli DH10B pBC SK blaPDC-3, read-out: MIC value
  MIC: 16 µg/mL
[14]
  MIC: 16 µg/mL
[15]
  MIC: 2 µg/mL
[16]
  MIC: 16 µg/mL
[17]
  MIC: 512 µg/mL
[18]
  MIC: 4 µg/mL

## O=C(Cc1cccs1)N[C@@H]1C(=O)N2C(C(=O)O)=C(/C=C/c3ccc([N+](=O)[O-])cc3[N+](=O)[O-])CS[C@H]12 [nitrocefin]
[19]
  Km: 20 ± 2 µM
[3]; reporter substrate with E221K
  Km: 17 ± 3 µM

## C[C@]1(Cn2ccnn2)[C@H](C(=O)O)N2C(=O)C[C@H]2S1(=O)=O [tazobactam]
[1]; piperacillin-tazobactam and ceftolozane-tazobactam combinations
  fold attenuation of variant strain MICs compared to single antibiotic: 2- to 8 fold
